Consider one compound from patent publication US20230240300A1, “NANO[…] MATERIAL BASED ON NIOBIUM OLIGOMERS, OBTENTION METHOD, AND USE” (UNIVERSIDADE FEDERAL DE MINAS GERAIS, priority 2020, published 2023).

For the assay, the system named is coronavirus. In words: viral load reduction study, compound mixed with virus suspension. In kind it is cell-based. Particulars: eight parts compound mixed with one part virus suspension, room temperature, 10 min contact; FIG. 4(A). On the procedure:
For viral load reduction studies directly employing the coronavirus, eight parts of the compound were adapted to room temperature (RT) and mixed with one part of the virus suspension. Immediately after incubation for defined periods at room temperature, the mixture was diluted 1:10. After four days of incubation at 37° C. in a CO2 incubator, cells were microscopically examined for virus-specific cytopathogenic effects after 10 min of virus contact with the niobium compound. All tests were performed in triplicate.
Initially, exploratory studies were carried out with different proportions of the compounds and with the materials separately. […] In fact, the results of samples S10 (representing a solution containing pure CTAB dissolved in water) and S12 (sample containing the same content of CTAB reacted with niobium), clearly indicate the potentiated effect of the Nb-CTAB species.

As for `CCCCCCCCCCCCCCCC[N+](C)(C)C.[Br-]` [CTAB, hexadecyltrimethylammonium bromide], the viral load reduction result is recorded as “approximately 30%”.
